Test results: ChEMBL document CHEMBL1201862, “PubChem BioAssay data set” (2004)
The source made the active and inactive calls.

What was measured:
[1] = Luminescence Cell-Based/Microorganism Confirmation at Dose of Inhibitors of Trypanosoma cruzi Infection. [Related pubchem assays: 1885, 1968 ]; type: functional
[2] = Luminescence Cell-Based Secondary HTS screen to identify cytotoxic compounds of NIH3T3 cells. [Related pubchem assays: 1885, 1968 ]; type: functional
[3] = inhibitors of Trypanosoma cruzi host-cell infection, confirmation, beta-gal luminescence, NIH3T3 host cells (AID 2630); type: functional, cell-based; conditions: Mus musculus
[4] = biological target: Eukaryotic translation initiation factor 4H (Homo sapiens, UniProt Q15056); experiment: human eIF4H binding inhibitors, primary screen, translation initiation inhibitor project, biochemical, uHTS, fluorescence polarization (AID 2012)
SUMO-activating enzyme [5] = biological target: T1, SUMO-activating enzyme (Homo sapiens, UniProt Q9UBT2); experiment: SUMOylation inhibitor hit validation, confirmation, SUMOylation inhibitor project, biochemical, AlphaScreen (AID 2018); type: functional
SUMO-activating enzyme [6] = biological target: T1, SUMO-activating enzyme; experiment: inhibitors of in vitro SUMOylation cascade, primary screen, biochemical, HTRF, uHTS (AID 2006); type: protein-complex assay
[7] = biological target: Polyadenylate-binding protein 1 (Homo sapiens, UniProt P11940); experiment: PABP poly(A) RNA binding inhibitors, primary screen, biochemical, fluorescence polarization, uHTS (AID 2014)
[8] = biological target: Intestinal-type alkaline phosphatase (Homo sapiens, UniProt P09923); experiment: activation of human intestinal alkaline phosphatase – biochemical, dose response (AID 488873); type: functional
[9] = biological target: Intestinal-type alkaline phosphatase (Mus musculus, UniProt P24822); experiment: mouse intestinal alkaline phosphatase activators, dose response, biochemical, luminescence, uHTS hits (AID 488783); type: functional
[10] = biological target: T2, Alkaline phosphatase, tissue-nonspecific isozyme (Homo sapiens, UniProt P05186); experiment: TNAP enzyme activators, dose response, selectivity assay for mouse IAP activator project, biochemical, TNAP isozyme, mouse IAP uHTS hits (AID 488880); type: functional
T2 sequence (P05186 whole entry): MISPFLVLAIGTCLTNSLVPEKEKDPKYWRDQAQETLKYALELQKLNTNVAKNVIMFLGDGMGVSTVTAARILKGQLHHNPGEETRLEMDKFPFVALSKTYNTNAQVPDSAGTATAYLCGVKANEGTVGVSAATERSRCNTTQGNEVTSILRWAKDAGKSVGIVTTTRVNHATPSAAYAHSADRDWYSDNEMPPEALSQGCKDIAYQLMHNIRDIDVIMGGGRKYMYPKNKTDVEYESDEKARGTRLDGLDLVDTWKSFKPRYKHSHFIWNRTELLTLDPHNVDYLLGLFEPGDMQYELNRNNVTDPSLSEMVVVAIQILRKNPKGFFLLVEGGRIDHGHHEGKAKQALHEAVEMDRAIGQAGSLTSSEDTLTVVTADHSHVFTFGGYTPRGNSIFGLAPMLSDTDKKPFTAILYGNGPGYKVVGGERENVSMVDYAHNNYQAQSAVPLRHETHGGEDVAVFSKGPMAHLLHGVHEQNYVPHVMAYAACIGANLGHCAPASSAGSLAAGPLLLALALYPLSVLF

[11] = biological target: T3, Nucleotide-binding oligomerization domain-containing protein 1 (Homo sapiens, UniProt Q9Y239); experiment: SAR analysis of NF-kappaB dependent luciferase using DAP as an inducer - Set 2. [Related pubchem assays (depositor defined):AID1566, AID1575, AID1578, AID1579, AID1849, AID1852, AID2264]; type: functional
T3 sequence (Q9Y239 whole entry): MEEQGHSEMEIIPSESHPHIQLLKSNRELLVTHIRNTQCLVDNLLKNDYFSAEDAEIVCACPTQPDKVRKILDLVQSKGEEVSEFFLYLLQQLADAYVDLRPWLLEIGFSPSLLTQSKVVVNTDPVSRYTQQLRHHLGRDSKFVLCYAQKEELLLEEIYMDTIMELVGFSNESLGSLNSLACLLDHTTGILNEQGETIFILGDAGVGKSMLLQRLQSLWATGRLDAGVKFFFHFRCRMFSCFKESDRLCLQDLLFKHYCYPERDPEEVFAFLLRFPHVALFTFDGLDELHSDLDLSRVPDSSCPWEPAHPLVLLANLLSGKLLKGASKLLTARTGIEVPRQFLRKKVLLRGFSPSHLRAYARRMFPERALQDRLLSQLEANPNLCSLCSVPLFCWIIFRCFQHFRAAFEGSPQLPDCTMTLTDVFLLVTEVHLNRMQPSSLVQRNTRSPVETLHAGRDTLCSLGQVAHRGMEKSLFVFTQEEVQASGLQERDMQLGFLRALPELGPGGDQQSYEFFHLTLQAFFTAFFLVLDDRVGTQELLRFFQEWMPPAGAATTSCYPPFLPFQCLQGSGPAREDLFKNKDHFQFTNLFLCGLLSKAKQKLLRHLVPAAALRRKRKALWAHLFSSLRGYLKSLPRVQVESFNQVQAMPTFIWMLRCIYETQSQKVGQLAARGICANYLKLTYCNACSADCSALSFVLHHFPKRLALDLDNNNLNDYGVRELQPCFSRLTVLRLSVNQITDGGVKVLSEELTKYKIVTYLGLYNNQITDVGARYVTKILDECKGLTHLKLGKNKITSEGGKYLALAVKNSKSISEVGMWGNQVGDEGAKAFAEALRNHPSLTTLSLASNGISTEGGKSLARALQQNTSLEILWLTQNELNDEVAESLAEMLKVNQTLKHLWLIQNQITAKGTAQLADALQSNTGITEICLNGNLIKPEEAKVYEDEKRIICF

Interleukin-8 [12] = biological target: T4, Interleukin-8 (Homo sapiens, UniProt P10145); experiment: SAR analysis of Tumor necrosis factor alpha (TNF-alpha) induced IL-8 secretion in MCF-7/NOD1 cells - Set 2. [Related pubchem assays (depositor defined):AID1575, AID2250, AID2260]; type: functional, cell-based
T4 sequence (P10145 whole entry): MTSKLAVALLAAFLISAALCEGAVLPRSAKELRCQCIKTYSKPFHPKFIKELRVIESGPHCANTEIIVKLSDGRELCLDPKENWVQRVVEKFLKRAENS

Interleukin-8 [13] = biological target: T4, Interleukin-8; experiment: SAR analysis of GM-Tri-DAP induced IL-8 secretion in MCF-7/NOD1 cells - Set 2. [Related pubchem assays (depositor defined):AID1575, AID1578, AID2333]; type: functional, cell-based
[14] = biological target: T5, Nucleotide-binding oligomerization domain-containing protein 2 (Homo sapiens, UniProt Q9HC29); experiment: NOD2 inhibitors, SAR follow-up, set 2 (AID 2475); type: functional
HEK293 [15] = experiment: SAR analysis of compounds that are cytotoxic to HEK293 - Set 2. [Related pubchem assays (depositor defined):AID1575, AID1578, AID1849, AID2001, AID2333, AID2334, AID2335, AID2337, AID2800]; type: functional, cell-based; conditions: Homo sapiens
[16] = biological target: T3, Nucleotide-binding oligomerization domain-containing protein 1; experiment: SAR analysis of compounds that inhibit NOD1 - Set 2. [Related pubchem assays (depositor defined):AID1566, AID1575, AID1578, AID1849, AID1852, AID2333, AID2335, AID2798]; type: functional
[17] = biological target: T3, Nucleotide-binding oligomerization domain-containing protein 1; experiment: SAR analysis of compounds that inhibit NOD1 - Set 3. [Related pubchem assays (depositor defined):AID1566, AID1575, AID1578, AID1849, AID1852, AID2333, AID2335, AID2466]; type: functional
Tumor necrosis factor = Tumor necrosis factor (Homo sapiens, UniProt P01375); experiment: TNFa-triggered NF-kB activation inhibitors, SAR follow-up, cell-based, set 3 (AID 2801); type: functional
HEK293 [18] = experiment: SAR analysis of compounds that are cytotoxic to HEK293 - Set 3. [Related pubchem assays (depositor defined):AID1575, AID1578, AID1848, AID1849, AID2001, AID2333, AID2334, AID2335, AID2337, AID2469]; type: functional, cell-based; conditions: Homo sapiens
[19] = biological target: T5, Nucleotide-binding oligomerization domain-containing protein 2; experiment: NOD2 signaling inhibitors, analog potency, SAR follow-up, cell-based, set 3 (AID 2799); type: functional

T5 sequence (Q9HC29 whole entry, the tested form may be a part): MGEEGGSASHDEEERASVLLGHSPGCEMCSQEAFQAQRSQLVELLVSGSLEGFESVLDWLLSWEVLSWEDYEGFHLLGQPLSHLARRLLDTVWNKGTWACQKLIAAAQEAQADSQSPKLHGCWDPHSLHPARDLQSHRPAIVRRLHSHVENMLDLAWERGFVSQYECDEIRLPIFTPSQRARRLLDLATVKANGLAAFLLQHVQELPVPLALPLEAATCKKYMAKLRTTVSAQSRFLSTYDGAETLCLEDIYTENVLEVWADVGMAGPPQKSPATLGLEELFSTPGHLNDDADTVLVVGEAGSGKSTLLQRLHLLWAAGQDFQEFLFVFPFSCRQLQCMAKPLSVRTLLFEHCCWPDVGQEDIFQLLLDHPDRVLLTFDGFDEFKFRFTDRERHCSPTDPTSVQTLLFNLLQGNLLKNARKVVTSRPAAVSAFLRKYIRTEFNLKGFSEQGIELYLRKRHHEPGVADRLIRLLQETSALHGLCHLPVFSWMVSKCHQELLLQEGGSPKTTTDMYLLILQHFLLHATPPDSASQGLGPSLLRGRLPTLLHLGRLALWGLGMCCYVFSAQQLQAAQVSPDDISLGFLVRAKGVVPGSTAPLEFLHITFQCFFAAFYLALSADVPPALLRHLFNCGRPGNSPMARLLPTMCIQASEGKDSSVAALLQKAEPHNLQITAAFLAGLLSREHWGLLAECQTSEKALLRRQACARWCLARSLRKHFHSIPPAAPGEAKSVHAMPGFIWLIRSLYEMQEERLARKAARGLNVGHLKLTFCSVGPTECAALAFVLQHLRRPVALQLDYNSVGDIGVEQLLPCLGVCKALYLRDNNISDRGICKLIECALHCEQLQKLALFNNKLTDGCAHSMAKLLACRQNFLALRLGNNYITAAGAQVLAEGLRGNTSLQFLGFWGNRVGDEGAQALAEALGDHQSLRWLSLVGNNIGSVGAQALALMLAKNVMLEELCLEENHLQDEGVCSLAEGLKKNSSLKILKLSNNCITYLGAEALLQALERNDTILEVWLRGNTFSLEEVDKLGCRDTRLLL
T1 sequence (Q9UBE0 whole entry): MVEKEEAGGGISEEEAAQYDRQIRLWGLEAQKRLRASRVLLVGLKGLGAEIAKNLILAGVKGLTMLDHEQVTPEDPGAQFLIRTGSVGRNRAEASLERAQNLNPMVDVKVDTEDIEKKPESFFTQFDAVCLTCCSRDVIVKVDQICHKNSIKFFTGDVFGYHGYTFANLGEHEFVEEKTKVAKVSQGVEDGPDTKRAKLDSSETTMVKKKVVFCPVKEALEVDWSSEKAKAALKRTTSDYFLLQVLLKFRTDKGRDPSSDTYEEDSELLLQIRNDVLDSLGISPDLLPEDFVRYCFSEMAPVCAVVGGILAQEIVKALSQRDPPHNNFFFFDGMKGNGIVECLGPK
T1 sequence (Q9UBT2 whole entry): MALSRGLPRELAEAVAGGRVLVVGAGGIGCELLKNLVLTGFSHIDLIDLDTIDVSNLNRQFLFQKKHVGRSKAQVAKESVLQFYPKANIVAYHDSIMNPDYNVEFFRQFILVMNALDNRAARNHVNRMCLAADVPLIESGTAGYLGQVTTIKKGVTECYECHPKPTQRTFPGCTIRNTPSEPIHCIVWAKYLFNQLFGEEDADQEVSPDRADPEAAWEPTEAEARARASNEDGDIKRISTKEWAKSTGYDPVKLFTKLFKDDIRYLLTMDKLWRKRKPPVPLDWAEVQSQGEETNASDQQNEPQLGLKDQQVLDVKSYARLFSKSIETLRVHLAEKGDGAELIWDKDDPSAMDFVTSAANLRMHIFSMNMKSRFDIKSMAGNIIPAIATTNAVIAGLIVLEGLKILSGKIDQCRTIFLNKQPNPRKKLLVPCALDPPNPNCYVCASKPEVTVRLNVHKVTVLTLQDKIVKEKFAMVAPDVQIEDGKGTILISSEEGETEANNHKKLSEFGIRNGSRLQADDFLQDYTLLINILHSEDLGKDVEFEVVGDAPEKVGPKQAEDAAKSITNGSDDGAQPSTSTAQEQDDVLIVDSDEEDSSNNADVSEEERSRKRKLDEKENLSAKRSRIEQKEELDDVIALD
Tumor necrosis factor, sequence (P01375 whole entry): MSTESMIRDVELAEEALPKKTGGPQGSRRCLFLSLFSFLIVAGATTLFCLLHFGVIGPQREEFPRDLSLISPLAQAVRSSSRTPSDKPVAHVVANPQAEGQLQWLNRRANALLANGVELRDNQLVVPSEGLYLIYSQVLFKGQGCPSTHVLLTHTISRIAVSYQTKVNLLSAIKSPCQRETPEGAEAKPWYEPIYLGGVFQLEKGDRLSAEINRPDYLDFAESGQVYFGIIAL
Intestinal-type alkaline phosphatase (Mus musculus, UniProt P24822), sequence (P24822 whole entry): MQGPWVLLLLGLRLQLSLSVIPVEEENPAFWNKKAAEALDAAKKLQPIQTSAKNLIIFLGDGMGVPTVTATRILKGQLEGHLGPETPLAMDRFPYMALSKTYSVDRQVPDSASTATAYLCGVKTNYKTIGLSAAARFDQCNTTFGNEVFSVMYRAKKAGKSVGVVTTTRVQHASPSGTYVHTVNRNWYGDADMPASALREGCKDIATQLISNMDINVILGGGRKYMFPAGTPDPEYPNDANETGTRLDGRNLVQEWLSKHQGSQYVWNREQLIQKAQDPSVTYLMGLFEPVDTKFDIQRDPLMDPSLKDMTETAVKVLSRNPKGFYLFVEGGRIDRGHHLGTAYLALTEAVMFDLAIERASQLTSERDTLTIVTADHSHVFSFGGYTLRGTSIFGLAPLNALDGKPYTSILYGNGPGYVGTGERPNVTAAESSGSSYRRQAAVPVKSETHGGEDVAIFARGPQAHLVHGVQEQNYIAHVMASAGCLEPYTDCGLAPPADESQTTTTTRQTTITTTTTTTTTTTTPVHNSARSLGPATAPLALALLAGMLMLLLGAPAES
Intestinal-type alkaline phosphatase (Homo sapiens, UniProt P09923), sequence (P09923 whole entry): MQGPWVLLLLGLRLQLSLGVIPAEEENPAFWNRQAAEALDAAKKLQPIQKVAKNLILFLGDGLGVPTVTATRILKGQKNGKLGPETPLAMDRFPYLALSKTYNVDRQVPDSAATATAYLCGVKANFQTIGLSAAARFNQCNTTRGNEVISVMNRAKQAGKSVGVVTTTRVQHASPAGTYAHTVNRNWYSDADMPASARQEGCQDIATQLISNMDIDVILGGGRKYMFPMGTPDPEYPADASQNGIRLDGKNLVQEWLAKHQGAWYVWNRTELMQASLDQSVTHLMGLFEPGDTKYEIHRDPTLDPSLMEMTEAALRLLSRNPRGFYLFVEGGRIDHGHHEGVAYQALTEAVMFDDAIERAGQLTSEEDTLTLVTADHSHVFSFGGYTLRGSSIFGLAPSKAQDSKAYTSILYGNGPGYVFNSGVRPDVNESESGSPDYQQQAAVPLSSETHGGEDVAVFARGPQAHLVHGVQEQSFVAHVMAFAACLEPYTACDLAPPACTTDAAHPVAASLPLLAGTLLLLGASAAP
Polyadenylate-binding protein 1, sequence (P11940 whole entry): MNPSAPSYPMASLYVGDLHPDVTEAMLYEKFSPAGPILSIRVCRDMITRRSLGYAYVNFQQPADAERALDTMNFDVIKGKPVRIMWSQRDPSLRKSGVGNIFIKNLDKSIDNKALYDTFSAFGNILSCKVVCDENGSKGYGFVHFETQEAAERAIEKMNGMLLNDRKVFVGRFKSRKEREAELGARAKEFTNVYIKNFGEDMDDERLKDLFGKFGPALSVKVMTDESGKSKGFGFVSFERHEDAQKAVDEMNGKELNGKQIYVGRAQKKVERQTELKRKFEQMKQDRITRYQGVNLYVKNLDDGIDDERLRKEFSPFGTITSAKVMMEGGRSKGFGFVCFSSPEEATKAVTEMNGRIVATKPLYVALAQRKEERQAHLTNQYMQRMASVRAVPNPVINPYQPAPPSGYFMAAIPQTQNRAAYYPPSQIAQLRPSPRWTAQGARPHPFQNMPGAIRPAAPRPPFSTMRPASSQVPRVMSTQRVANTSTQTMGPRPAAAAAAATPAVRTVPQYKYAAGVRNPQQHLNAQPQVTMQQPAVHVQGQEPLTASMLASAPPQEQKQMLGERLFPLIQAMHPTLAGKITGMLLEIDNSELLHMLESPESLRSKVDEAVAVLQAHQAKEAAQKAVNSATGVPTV

SMILES: CC(C)c1cccc(OCCCCN(C)C)c1
- EC50 [1]: 2.18 µM (active)
- EC50 [2]: > 195 µM (not active)
- EC50 [3]: 2.18 µM (active)

SMILES: Cc1ccc(C(=O)Nc2nnc(CC(=O)N/N=C/c3ccc(O)c(O)c3)s2)cc1
- IC50 [4]: 4.81 µM (active)
- IC50 (SUMO-activating enzyme [5]): 1.71 µM (active)
- IC50 (SUMO-activating enzyme [6]): 37.1 µM (active)
- IC50 [7]: 46 µM (active)
- EC50 [8]: 66 µM (active)
- EC50 [9]: 37.2 µM (active)
- EC50 [10]: 47.8 µM (active)

SMILES: COCCn1c(SCCCc2ccccc2)nc2c1c(=O)[nH]c(=O)n2C
- IC50 [11]: > 25 µM (inactive)
- IC50 (Interleukin-8 [12]): > 25 µM (inactive)
- IC50 (Interleukin-8 [13]): > 25 µM (inactive)
- IC50 [14]: > 20 µM (inactive)
- IC50 (HEK293 [15]): > 20 µM (inactive)
- IC50 [16]: > 20 µM (inactive)
- IC50 [17]: > 20 µM (inactive)
- IC50 (Tumor necrosis factor): > 20 µM (inactive)
- IC50 (HEK293 [18]): > 20 µM (inactive)
- IC50 [19]: > 20 µM (inactive)
